Results reported in PubChem BioAssay (NCI).
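Protocol summary: plate cells (96-well), add compound at 5 concentrations, incubate 48 h, interpolate endpoints linearly. At the GI50, growth is halved. At the TGI there is no net growth.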

Key:
Assay in all cases: NCI-60 cell line screen, 48 h
786-0 renal = tested on: 786-0 renal
A498 renal = tested on: A498 renal
A549 NSCLC = tested on: A549 NSCLC
ACHN renal = tested on: ACHN renal
BT-549 breast = tested on: BT-549 breast
CAKI-1 renal = tested on: CAKI-1 renal
CCRF-CEM leukemia = tested on: CCRF-CEM leukemia
COLO 205 colon = tested on: COLO 205 colon
DU-145 prostate = tested on: DU-145 prostate
EKVX NSCLC = tested on: EKVX NSCLC
HCC-2998 colon = tested on: HCC-2998 colon
HCT-116 colon = tested on: HCT-116 colon
HCT-15 colon = tested on: HCT-15 colon
HL-60(TB) leukemia = tested on: HL-60(TB) leukemia
HOP-62 NSCLC = tested on: HOP-62 NSCLC
HOP-92 NSCLC = tested on: HOP-92 NSCLC
HS 578T breast = tested on: HS 578T breast
HT29 colon = tested on: HT29 colon
IGROV1 ovarian = tested on: IGROV1 ovarian
K-562 leukemia = tested on: K-562 leukemia
KM12 colon = tested on: KM12 colon
LOX IMVI melanoma = tested on: LOX IMVI melanoma
M14 melanoma = tested on: M14 melanoma
MALME-3M melanoma = tested on: MALME-3M melanoma
MCF7 breast = tested on: MCF7 breast
MDA-MB-231 breast = tested on: MDA-MB-231 breast
MDA-MB-435 = tested on: MDA-MB-435
MOLT-4 leukemia = tested on: MOLT-4 leukemia
NCI-H226 lung = tested on: NCI-H226 lung
NCI-H23 lung = tested on: NCI-H23 lung
NCI-H460 lung = tested on: NCI-H460 lung
NCI-H522 lung = tested on: NCI-H522 lung
NCI/ADR-RES ovarian = tested on: NCI/ADR-RES ovarian
OVCAR-3 ovarian = tested on: OVCAR-3 ovarian
OVCAR-4 ovarian = tested on: OVCAR-4 ovarian
OVCAR-5 ovarian = tested on: OVCAR-5 ovarian
OVCAR-8 ovarian = tested on: OVCAR-8 ovarian
PC-3 prostate = tested on: PC-3 prostate
RPMI-8226 leukemia = tested on: RPMI-8226 leukemia
RXF 393 renal = tested on: RXF 393 renal
SF-268 CNS = tested on: SF-268 CNS
SF-295 CNS = tested on: SF-295 CNS
SF-539 CNS = tested on: SF-539 CNS
SK-MEL-2 melanoma = tested on: SK-MEL-2 melanoma
SK-MEL-28 melanoma = tested on: SK-MEL-28 melanoma
SK-MEL-5 melanoma = tested on: SK-MEL-5 melanoma
SK-OV-3 ovarian = tested on: SK-OV-3 ovarian
SN12C renal = tested on: SN12C renal
SNB-19 CNS = tested on: SNB-19 CNS
SNB-75 CNS = tested on: SNB-75 CNS
SR leukemia = tested on: SR leukemia
SW-620 colon = tested on: SW-620 colon
T-47D breast = tested on: T-47D breast
TK-10 renal = tested on: TK-10 renal
U251 CNS = tested on: U251 CNS
UACC-257 melanoma = tested on: UACC-257 melanoma
UACC-62 melanoma = tested on: UACC-62 melanoma
UO-31 renal = tested on: UO-31 renal

SMILES: O=C(NC1CCC(Br)CC1)C1CCCC(S(=O)(=O)NC2CCCCC2)C1 (stereo unspecified)
- GI50 (786-0 renal): 19.3 µM
- TGI (786-0 renal): 55 µM
- GI50 (A498 renal): 3.7 µM
- TGI (A498 renal): 21.7 µM
- GI50 (A549 NSCLC): 9.81 µM
- TGI (A549 NSCLC): 44.8 µM
- GI50 (ACHN renal): 9.9 µM
- TGI (ACHN renal): 39.4 µM
- GI50 (BT-549 breast): 8.34 µM
- TGI (BT-549 breast): 35.4 µM
- GI50 (CAKI-1 renal): 10.2 µM
- TGI (CAKI-1 renal): 42.5 µM
- GI50 (CCRF-CEM leukemia): 0.233 µM
- TGI (CCRF-CEM leukemia): 26.3 µM
- GI50 (COLO 205 colon): 14 µM
- TGI (COLO 205 colon): 51.5 µM
- GI50 (DU-145 prostate): 16.1 µM
- TGI (DU-145 prostate): 47.7 µM
- GI50 (EKVX NSCLC): 7.81 µM
- TGI (EKVX NSCLC): 32.9 µM
- GI50 (HCC-2998 colon): 13 µM
- TGI (HCC-2998 colon): 47.3 µM
- GI50 (HCT-116 colon): 9.15 µM
- TGI (HCT-116 colon): 38 µM
- GI50 (HCT-15 colon): 11.5 µM
- TGI (HCT-15 colon): 46.9 µM
- GI50 (HL-60(TB) leukemia): 8.6 µM
- TGI (HL-60(TB) leukemia): 82.2 µM
- GI50 (HOP-62 NSCLC): 24 µM
- TGI (HOP-62 NSCLC): 59.8 µM
- GI50 (HOP-92 NSCLC): 4.7 µM
- TGI (HOP-92 NSCLC): 23 µM
- GI50 (HS 578T breast): 16.8 µM
- TGI (HS 578T breast): 87.2 µM
- GI50 (HT29 colon): 17.7 µM
- TGI (HT29 colon): 55 µM
- GI50 (IGROV1 ovarian): 9.78 µM
- TGI (IGROV1 ovarian): 46 µM
- GI50 (K-562 leukemia): 7.52 µM
- TGI (K-562 leukemia): 250 µM
- GI50 (KM12 colon): 13.3 µM
- TGI (KM12 colon): 47.8 µM
- GI50 (LOX IMVI melanoma): 10.7 µM
- TGI (LOX IMVI melanoma): 40.4 µM
- GI50 (M14 melanoma): 9.42 µM
- TGI (M14 melanoma): 39.6 µM
- GI50 (MALME-3M melanoma): 6.47 µM
- TGI (MALME-3M melanoma): 39.3 µM
- GI50 (MCF7 breast): 9.31 µM
- TGI (MCF7 breast): 63.8 µM
- GI50 (MDA-MB-231 breast): 13.5 µM
- TGI (MDA-MB-231 breast): 55.8 µM
- GI50 (MDA-MB-435): 10.6 µM
- TGI (MDA-MB-435): 42.3 µM
- GI50 (MOLT-4 leukemia): 8.91 µM
- TGI (MOLT-4 leukemia): 79.3 µM
- GI50 (NCI-H226 lung): 12 µM
- TGI (NCI-H226 lung): 109 µM
- GI50 (NCI-H23 lung): 7.88 µM
- TGI (NCI-H23 lung): 35.3 µM
- GI50 (NCI-H460 lung): 11.4 µM
- TGI (NCI-H460 lung): 48 µM
- GI50 (NCI-H522 lung): 8 µM
- TGI (NCI-H522 lung): 38.1 µM
- GI50 (NCI/ADR-RES ovarian): 8.36 µM
- TGI (NCI/ADR-RES ovarian): 37.7 µM
- GI50 (OVCAR-3 ovarian): 9.83 µM
- TGI (OVCAR-3 ovarian): 40 µM
- GI50 (OVCAR-4 ovarian): 8.19 µM
- TGI (OVCAR-4 ovarian): 44.1 µM
- GI50 (OVCAR-5 ovarian): 14.2 µM
- TGI (OVCAR-5 ovarian): 48.8 µM
- GI50 (OVCAR-8 ovarian): 12.8 µM
- TGI (OVCAR-8 ovarian): 59 µM
- GI50 (PC-3 prostate): 8.47 µM
- TGI (PC-3 prostate): 37.1 µM
- GI50 (RPMI-8226 leukemia): 9.79 µM
- TGI (RPMI-8226 leukemia): 58 µM
- GI50 (RXF 393 renal): 11.8 µM
- TGI (RXF 393 renal): 48.1 µM
- GI50 (SF-268 CNS): 12.6 µM
- TGI (SF-268 CNS): 56 µM
- GI50 (SF-295 CNS): 8.04 µM
- TGI (SF-295 CNS): 28.4 µM
- GI50 (SF-539 CNS): 13.5 µM
- TGI (SF-539 CNS): 46.3 µM
- GI50 (SK-MEL-2 melanoma): 11.5 µM
- TGI (SK-MEL-2 melanoma): 46.4 µM
- GI50 (SK-MEL-28 melanoma): 9.22 µM
- TGI (SK-MEL-28 melanoma): 36.8 µM
- GI50 (SK-MEL-5 melanoma): 4.96 µM
- TGI (SK-MEL-5 melanoma): 11.6 µM
- GI50 (SK-OV-3 ovarian): 14.1 µM
- TGI (SK-OV-3 ovarian): 47.3 µM
- GI50 (SN12C renal): 9.29 µM
- TGI (SN12C renal): 39.8 µM
- GI50 (SNB-19 CNS): 11.1 µM
- TGI (SNB-19 CNS): 42.7 µM
- GI50 (SNB-75 CNS): 17 µM
- TGI (SNB-75 CNS): 69.5 µM
- GI50 (SR leukemia): 18.8 µM
- TGI (SR leukemia): 129 µM
- GI50 (SW-620 colon): 13.9 µM
- TGI (SW-620 colon): 53.7 µM
- GI50 (T-47D breast): 6.05 µM
- TGI (T-47D breast): 37 µM
- GI50 (TK-10 renal): 15 µM
- TGI (TK-10 renal): 49.9 µM
- GI50 (U251 CNS): 10.9 µM
- TGI (U251 CNS): 43 µM
- GI50 (UACC-257 melanoma): 9.32 µM
- TGI (UACC-257 melanoma): 38.4 µM
- GI50 (UACC-62 melanoma): 7.38 µM
- TGI (UACC-62 melanoma): 35.3 µM
- GI50 (UO-31 renal): 6.26 µM
- TGI (UO-31 renal): 33.1 µM
